Structures can show the parent of a compound that is named as a salt. Where two headings read alike, the source gives them in different places.
Assays:
1a-H77 replicon cells = assay: HCV 1a replicon inhibitory activity (Renilla luciferase); assay type: cell-based, hepatitis C virus; conditions: read-out: IC50 value (95% Confidence Intervals) pM Replicon 1A assay
In short: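 Replicon cells in DMEM + 10% FCS incubated 48 hours at 37° C., 5% CO2 with 1-in-3 serial dilutions of compound prepared in DMSO. Replication read as Renilla luciferase luminescence after lysis. EC50 taken from log concentration-response curves.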

1b (con1) replicon cells = assay: HCV 1b replicon inhibitory activity (luciferase, Britelite Plus); assay type: cell-based, hepatitis C virus; conditions: read-out: IC50 value (95% Confidence Intervals) pM Replicon 1B assay
In short: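 1b (con1) luciferase replicon cells in DMEM + 10% FCS were exposed to 1-in-3 DMSO compound dilutions for 48 h at 37° C, 5% CO2. Luminescence was read 1-15 min after Britelite Plus addition; EC50 came from log concentration-response curves.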

[1] = geometric mean, 95% confidence intervals in parentheses, 48 hours, medium with 10% FCS

Compound | IC50 (1a-H77 replicon cells; Hepatitis C virus, 48 h) | IC50 (1b (con1) replicon cells; Hepatitis C virus, 48 h) | IC50 (1a-H77 replicon cells; [1]) | IC50 (1b (con1) replicon cells; [1])
CCCC[C@@H](NC(=O)OC)C(=O)N1CCC[C@H]1c1ncc(-c2ccc3nc(-c4ccc(-c5c[nH]c([C@@H]6CCCN6C(=O)[C@@H](NC(=O)OC)C(C)C)n5)cc4)cnc3c2)[nH]1 [Example 78, Methyl {(2R)-1-[(2S)-2-{5-[2-(4-{2-[(2S)-1-{(2S)-2-[(methoxycarbonyl)amino]-3-methylbutanoyl}pyrrolidin-2-yl]-1H-imidazol-4-yl}phenyl)quinoxalin-6-yl]-1H-imidazol-2-yl}pyrrolidin-1-yl]-1-oxohexan-2-yl}carbamate trifluoroacetic acid salt] | 443 pM | 45.5 pM | – | –
COC(=O)N[C@@H](CC1CCCCC1)C(=O)N1CCC[C@H]1c1ncc(-c2ccc3nc(-c4ccc(-c5c[nH]c([C@@H]6CCCN6C(=O)[C@@H](NC(=O)OC)C(C)C)n5)cc4)cnc3c2)[nH]1 [Example 80, Methyl {(2S)-1-[(2S)-2-(4-{4-[6-(2-{(2S)-1-[3-cyclohexyl-N-(methoxycarbonyl)alanyl]pyrrolidin-2-yl}-1H-imidazol-5-yl)quinoxalin-2-yl]phenyl}-1H-imidazol-2-yl)pyrrolidin-1-yl]-3-methyl-1-oxobutan-2-yl} carbamate] | – | – | 117 pM | 11.4 pM
COC(=O)N[C@H](C(=O)N1CCC[C@H]1c1nc(-c2ccc(-c3cnc4cc(-c5cnc([C@@H]6CCCN6C(=O)[C@@H](Cc6c[nH]c7ccccc67)NC(=O)OC)[nH]5)ccc4n3)cc2)c[nH]1)C(C)C [Example 82, Methyl {(2S)-1-[(2S)-2-{4-[4-(6-{2-[(2S)-1-{(2R)-3-(1H-indol-3-yl)-2-[(methoxycarbonyl)amino]propanoyl}pyrrolidin-2-yl]-1H-imidazol-5-yl}quinoxalin-2-yl)phenyl]-1H-imidazol-2-yl}pyrrolidin-1-yl]-3-methyl-1-oxobutan-2-yl}carbamate trifluoroacetic acid salt] | 490 pM | 190 pM | – | –
COC(=O)N[C@H](C(=O)N1CCC[C@H]1c1nc(-c2ccc(-c3cnc4cc(-c5cnc([C@@H]6CCCN6C(=O)[C@@H](Cc6ccccn6)NC(=O)OC)[nH]5)ccc4n3)cc2)c[nH]1)C(C)C [Example 83, Methyl {(2S)-1-[(2S)-2-(4-{4-[6-(2-{(2S)-1-[(2R)-2-[(methoxycarbonyl)amino]-3-(pyridin-2-yl)propanoyl]pyrrolidin-2-yl}-1H-imidazol-5-yl)quinoxalin-2-yl]phenyl}-1H-imidazol-2-yl)pyrrolidin-1-yl]-3-methyl-1-oxobutan-2-yl}carbamate trifluoroacetic acid salt] | 1030 pM | 53.4 pM | – | –
Methyl {(2S)-1-[(2S)-2-{4-[4-(6-{2-[(2S)- 1-{(2S)-3-tert-butoxy-2-[(methoxy carbonyl)amino]propanoyl}pyrrolidin-2- yl]-1H-imidazol-5-yl}quinoxalin-2-yl) phenyl]-1H-imidazol-2-yl}pyrrolidin-1-yl]- 3-methyl-1-oxobutan-2-yl}carbamate trifluoroacetic acid salt [Example 81] | – | – | 44 pM | 13.7 pM

Source: patent US20110112100A1, “Hepatitis C Virus Inhibitors” (priority 2009, published 2011)
